Assay results as given in article PMC8042770, “Odorant Receptors for Detecting Flowering Plant Cues Are Functionally Conserved across Moths and Butterflies” (Molecular Biology and Evolution, 2020).
Like-named read-outs stand apart in the source and are kept apart here. Blank lines part the entries; values can stand above or below the compound they belong to.

Experiments:
HarmOR59 = HarmOR59 (Helicoverpa armigera, UniProt A0A7T3KAU6); experiment: Xenopus oocyte two-electrode voltage clamp, HarmOR59 + Orco; format: cell-based
Protocol: (§1) In order to expand our analysis on the response properties of HarmORs, we conducted dose–response analyses for the 28 functional HarmORs. […] Six HarmORs (OR3, 22, 48, 50, 56, and 66) could not be activated by any ligand at 10^−5 M. For the other 22 HarmORs, dose–response curves were generated and EC50 values of their major ligands were calculated (fig. 2A and supplementary table S2, Supplementary Material online). The HarmOR repertoire was highly efficient in terpene detection, since the lowest EC50 values were obtained for such compounds. Many of these terpenes have been proposed to be defensive chemicals of plants. […] DMNT is also one of the oviposition deterring compounds found in larval frass of some Lepidoptera species such as S. littoralis ([Anderson et al. 1993]).
(§2) Functional characterization of individual ORs was performed by heterologous expression in Xenopus oocytes combined with a two-electrode voltage-clamp system ([Wang et al. 2010]). Briefly, the full-length gene of each OR and Orco were subcloned into the eukaryotic expression vector pT7TS. cRNAs were generated from linearized expression vectors using the mMESSAGE mMACHINE T7 kit (Ambion, Austin, TX). Then, the cRNA mixture of ORx and Orco (27.6 ng each) was injected (Nanoliter 2010, WPI Inc., Sarasota, FL) into oocytes (stage V–VII). The respective Orcos of different species were used for functional studies of OR42 orthologs except for the four butterfly species (V. tameamea, P. xuthus, D. plexippus, and P. rapae), in which we used the Orco from P. xuthus. After incubation in nutrient solution at 18 °C for 3–5 days, the response profile of each oocyte to multiple plant odorants was recorded via a two-electrode voltage clamp (OC-725C oocyte clamp, Warner Instruments, Hamden, CT) at a holding potential of −80 mV. Data were acquired by using a Digidata 1440 A and were analyzed by pCLAMP 10.2 software (Axon Instruments Inc., Union City, CA).
(§3) Stock solutions of each odorant were prepared at 1 M using DMSO as a solvent, and each odorant was diluted in 1× Ringer’s solution to the indicated concentrations for electrophysiological recording. For functional screening of each HarmOR, a panel of 67 odorants belonging to three types of chemical classes: terpenes, aromatics, and aliphatics (short-chain fatty acid) were used (supplementary table S1, Supplementary Material online). For functional studies of OR42 orthologs from different species, six odorants including PAA, benzaldehyde, (E)-2-hexen-1-al, cinnamaldehyde, 2-phenylethanol, and heptanal were used.

HarmOR42 = HarmOR42 (Helicoverpa armigera, UniProt A0A7T3KAF6); experiment: Xenopus oocyte two-electrode voltage clamp, HarmOR42 + Orco; format: cell-based; details: 67 odorants at 10^−4 M
Excerpt: In preliminary screening, we used a high dosage (10^−4 M) of odorants. […] Most functional ORs responded robustly to multiple odorants. The strongest response (up to ∼6,000 nanoampere, nA) we detected was that of HarmOR42 toward the aromatic compound PAA. Further, the response profiles of the 28 HarmORs appeared to be highly differentiated, with no apparent overlap in their tuning spectra (with the exception of HarmOR12 and 36) according to functional cluster analysis (fig. 1A).
as §1, §2, §3

HarmOR repertoire = experiment: Responses of the 28 functional HarmORs across odorant doses (PCA of oocyte currents); format: cell-based, Helicoverpa armigera; details: odorant 10^−7 M
Excerpt: Vectors quantifying the responses of the 28 ORs to each odorant were projected onto a 3D landscape. This 3D representation captured 78.34% (10^−4 M), 65.11% (10^−5 M), 68.89% (10^−6 M), and 84.52% (10^−7 M) of the variation in the original 28D data set across different odorant concentrations. […] In addition, the capacity of the H. armigera odor space was highly dependent on odorant concentration. As the concentrations of odorants decreased, their positions in the odor space converged, with the ability to discriminate different odorants diminishing.
as §2, §3
Graphs and data statistics of OR response spectra, dose responses, EAG, and behavioral experiments were generated by Prism 7 (GraphPad Software, La Jolla, CA). A heat map was generated in Excel 2010 (Microsoft Corporation, WA). […] For tuning breadth analysis, the kurtosis values (K) were calculated by SPSS 22 (SPSS Inc., Chicago, IL) and were used to define the tuning spectra width, where smaller K values represent broader tuning spectra (fig. 1B). […]

[1] = tested on: H. armigera moth antennae; experiment: Electroantennography (EAG), wild-type vs HarmOR42 knock-out moths; format: in vivo, Helicoverpa armigera; details: single odorants, 1 μg
Excerpt: We next conducted a loss-of-function study by generating a HarmOR42-lacking H. armigera strain by CRISPR/Cas9 targeting the first coding exon. Homozygous mutants were obtained with a large segment deletion of 203 bp and a 6-bp nonhomologous insertion in the genome (fig. 6B), introducing a premature stop codon in the coding sequence. […] The most likely hypothesis is that HarmOR42 is not the major receptor for sensing this compound in H. armigera. As a control, we tested the response of male moths to the sex pheromone component Z11-16: Ald that is not a ligand of HarmOR42. As expected, we observed no difference between the EAG responses of mutant and wild-type moths to this compound.
The antennae of 2- to 3-day-old virgin male and female moths were cut at the base of the flagellum. After removing the tip, one antenna was inserted between two glass electrodes filled with 0.1 M KCl solution. In each test, a 10-μl solution of each odorant was added onto a piece of filter paper (0.5 cm × 0.5 cm) and then inserted into a Pasteur pipette. About 100 ng/μl stock solutions of individual odorants and different doses of the mixture IAC were prepared with paraffin oil. A continuous airflow of 30 ml/s was produced by a stimulus controller (CS-55, Syntech, Kirchzarten, Germany). Odor stimulation was controlled by a puff of purified air (0.2 s at 10 ml/s airflow) from the CS-55. EAG signals were amplified with a 10× AC/DC headstage preamplifier (Syntech) and further acquired with an Intelligent Data Acquisition Controller (IDAC-4-USB, Syntech) ([Cao et al. 2016]). The signals were recorded, monitored, and analyzed using Syntech EAG-software (Syntech, Germany). The EAG response values for each compound were calculated by subtracting the value of the same antennae corresponding to a solvent blank of paraffin oil.

HarmOR36 = HarmOR36 (Helicoverpa armigera, UniProt A0A7T3N0K7); experiment: Xenopus oocyte two-electrode voltage clamp, HarmOR36 + Orco; format: cell-based; details: HarmOR36; dose response in oocytes; unit M; read-out: EC50
Protocol: as §1, §2, §3

HarmOR52 = HarmOR52 (Helicoverpa armigera, UniProt A0A7T3KAH2); experiment: Xenopus oocyte two-electrode voltage clamp, HarmOR52 + Orco; format: cell-based
Protocol: as §1, §2, §3

HarmOR12 = HarmOR12 (Helicoverpa armigera, UniProt A0A172QGF5); experiment: Xenopus oocyte two-electrode voltage clamp, HarmOR12 + Orco; format: cell-based; details: HarmOR12; dose response in oocytes; unit M; read-out: EC50
Excerpt: (§4) In order to expand our analysis on the response properties of HarmORs, we conducted dose–response analyses for the 28 functional HarmORs. […] Many of these terpenes have been proposed to be defensive chemicals of plants.
(§5) Briefly, the full-length gene of each OR and Orco were subcloned into the eukaryotic expression vector pT7TS. cRNAs were generated from linearized expression vectors using the mMESSAGE mMACHINE T7 kit (Ambion, Austin, TX). […] The respective Orcos of different species were used for functional studies of OR42 orthologs except for the four butterfly species (V. tameamea, P. xuthus, D. plexippus, and P. rapae), in which we used the Orco from P. xuthus.
as §3

HarmOR31 = HarmOR31 (Helicoverpa armigera, UniProt A0A7T3N2E9); experiment: Xenopus oocyte two-electrode voltage clamp, HarmOR31 + Orco; format: cell-based; details: HarmOR31; dose response in oocytes; unit M; read-out: EC50
Excerpt: as §4, §5, §3

[2] = HarmOR59, dose response in oocytes, unit M, read-out: EC50

Sequence of HarmOR52 (A0A7T3KAH2 entry or part of it): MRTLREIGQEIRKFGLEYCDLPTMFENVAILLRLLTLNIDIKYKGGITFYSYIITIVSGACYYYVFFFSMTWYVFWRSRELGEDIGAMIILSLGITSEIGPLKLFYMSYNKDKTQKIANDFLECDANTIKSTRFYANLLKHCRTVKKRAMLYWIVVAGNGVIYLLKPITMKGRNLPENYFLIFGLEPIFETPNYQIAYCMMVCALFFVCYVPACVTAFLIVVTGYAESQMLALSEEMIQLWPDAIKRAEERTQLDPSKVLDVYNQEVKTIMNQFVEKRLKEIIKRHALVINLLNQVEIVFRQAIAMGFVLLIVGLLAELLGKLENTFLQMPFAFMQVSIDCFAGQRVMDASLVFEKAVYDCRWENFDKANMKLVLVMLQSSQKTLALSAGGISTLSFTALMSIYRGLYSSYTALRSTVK
Sequence of HarmOR59 (A0A7T3KAU6 entry or part of it): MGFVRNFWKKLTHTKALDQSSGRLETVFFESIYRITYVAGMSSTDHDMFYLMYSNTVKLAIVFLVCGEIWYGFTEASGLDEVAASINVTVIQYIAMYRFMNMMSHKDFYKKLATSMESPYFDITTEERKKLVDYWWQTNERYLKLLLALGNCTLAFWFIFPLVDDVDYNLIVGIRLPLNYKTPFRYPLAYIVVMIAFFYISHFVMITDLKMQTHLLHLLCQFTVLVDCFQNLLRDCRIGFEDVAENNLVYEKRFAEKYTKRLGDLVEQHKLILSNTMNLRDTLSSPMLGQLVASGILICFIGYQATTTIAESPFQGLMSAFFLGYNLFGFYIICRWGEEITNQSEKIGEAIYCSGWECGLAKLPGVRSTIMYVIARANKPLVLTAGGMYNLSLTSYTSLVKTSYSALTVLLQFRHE
Sequence of HarmOR31 (A0A7T3N2E9 entry or part of it): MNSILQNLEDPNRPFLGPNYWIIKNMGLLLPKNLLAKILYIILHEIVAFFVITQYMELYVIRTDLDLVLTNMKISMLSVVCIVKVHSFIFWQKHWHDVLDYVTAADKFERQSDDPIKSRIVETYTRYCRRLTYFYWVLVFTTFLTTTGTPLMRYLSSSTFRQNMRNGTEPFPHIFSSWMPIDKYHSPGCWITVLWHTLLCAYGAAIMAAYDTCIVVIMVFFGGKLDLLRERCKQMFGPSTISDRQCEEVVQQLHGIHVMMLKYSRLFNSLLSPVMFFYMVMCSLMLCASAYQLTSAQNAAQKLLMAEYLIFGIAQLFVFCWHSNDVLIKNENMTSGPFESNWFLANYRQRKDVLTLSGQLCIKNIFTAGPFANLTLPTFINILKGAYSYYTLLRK
Sequence of HarmOR36 (A0A7T3N0K7 entry or part of it): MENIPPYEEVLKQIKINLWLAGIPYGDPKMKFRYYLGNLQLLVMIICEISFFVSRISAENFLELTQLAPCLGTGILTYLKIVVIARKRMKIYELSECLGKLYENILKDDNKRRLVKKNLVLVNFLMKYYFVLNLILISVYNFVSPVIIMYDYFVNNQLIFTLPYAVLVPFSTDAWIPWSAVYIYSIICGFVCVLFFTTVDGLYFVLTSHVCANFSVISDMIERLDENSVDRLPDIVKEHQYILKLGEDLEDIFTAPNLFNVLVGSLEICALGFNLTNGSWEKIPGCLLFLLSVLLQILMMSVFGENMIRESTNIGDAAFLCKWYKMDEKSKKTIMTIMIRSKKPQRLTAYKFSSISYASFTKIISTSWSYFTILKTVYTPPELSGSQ
Sequence of HarmOR42 (A0A7T3KAF6 entry or part of it): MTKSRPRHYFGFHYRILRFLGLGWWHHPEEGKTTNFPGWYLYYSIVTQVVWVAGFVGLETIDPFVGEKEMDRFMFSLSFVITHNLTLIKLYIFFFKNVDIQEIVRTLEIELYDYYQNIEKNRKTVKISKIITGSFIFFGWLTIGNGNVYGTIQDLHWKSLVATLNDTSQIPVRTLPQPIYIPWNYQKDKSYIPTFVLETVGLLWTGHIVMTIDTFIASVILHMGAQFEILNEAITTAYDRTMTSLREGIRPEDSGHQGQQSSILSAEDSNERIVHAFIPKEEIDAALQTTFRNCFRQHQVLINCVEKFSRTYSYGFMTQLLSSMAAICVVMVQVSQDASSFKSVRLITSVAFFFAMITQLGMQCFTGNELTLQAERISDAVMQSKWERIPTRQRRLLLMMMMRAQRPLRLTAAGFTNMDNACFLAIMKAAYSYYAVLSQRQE
Sequence of HarmOR12 (A0A172QGF5 entry or part of it): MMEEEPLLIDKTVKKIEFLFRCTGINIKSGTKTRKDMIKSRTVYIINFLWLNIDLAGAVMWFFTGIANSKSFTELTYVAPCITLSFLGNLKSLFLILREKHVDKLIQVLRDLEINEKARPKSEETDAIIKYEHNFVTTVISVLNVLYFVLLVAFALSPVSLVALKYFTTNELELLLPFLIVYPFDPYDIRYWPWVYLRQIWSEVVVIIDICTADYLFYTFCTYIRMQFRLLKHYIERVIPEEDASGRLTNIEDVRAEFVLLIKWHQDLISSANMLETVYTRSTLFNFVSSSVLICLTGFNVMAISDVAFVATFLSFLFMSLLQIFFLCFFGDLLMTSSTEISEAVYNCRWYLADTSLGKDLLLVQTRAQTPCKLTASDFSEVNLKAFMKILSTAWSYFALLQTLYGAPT

EC50 (HarmOR59; [2]): 2.91 µM
ligand tuning of HarmOR42 (HarmOR42): minor ligand
SMILES: OCCc1ccccc1 [2-Phenylethanol]
response of the HarmOR repertoire (HarmOR repertoire): still responded
EAG response of HarmOR42 knock-out mutants compared with wild-type moths [1]: no significant difference

EC50 (HarmOR36): 2.91 µM
SMILES: CCC(C)(O)CCCC(C)C (centres unmarked) [3,7-Dimethyl-3-octanol]

EC50 (HarmOR59; [2]): 1190 µM
SMILES: CCc1ccc(C=O)cc1 [4-Ethylbenzaldehyde]

EC50 (HarmOR52; HarmOR52, dose response in oocytes, unit M, read-out: EC50): 17.1 µM
SMILES: CC1(C)[C@H]2CC=C(CO)[C@@H]1C2 [(1R)-(-)-Myrtenol]

EC50 (HarmOR36): 1.14 µM
EC50 (HarmOR12): 13.7 µM
SMILES: C=C[C@](C)(O)CCC=C(C)C [(-)-Linalool]

SMILES: CCC/C=C/C=O [(E)-2-Hexen-1-al]
EC50 (HarmOR59): 3780 µM

SMILES: CCC/C=C/CO [(E)-2-Hexen-1-ol]
EC50 (HarmOR59): 1190 µM
EC50 (HarmOR52): 24 µM

EC50 (HarmOR31): 5.02 µM
SMILES: CCC/C=C/COC(C)=O [(E)-2-Hexenyl acetate]

SMILES: CCC/C=C\CO [(Z)-2-Hexen-1-ol]
EC50 (HarmOR52): 16.5 µM

EC50 (HarmOR31): 7.51 µM
SMILES: CC/C=C\CCOC(C)=O [(Z)-3-Hexenyl acetate]

SMILES: CC/C=C\CCO [(Z)-3-hexen-1-ol]
EC50 (HarmOR59): 1860 µM
EC50 (HarmOR52): 23.3 µM
